Values after ≈ are worked out from the molar mass of the structure shown. Read-outs that look alike come from different tables or passages of the source. Starred links: 1 amine or outer side, 2 acyl side, 3 side chain; linkers in the order of their positions; H or OH if unused. Non-standard residues stand in square brackets, D forms with d. Residues, ends and D or L forms follow the SMILES beside them. NH(CH2)9CO = O=C(CCCCCCCCCN[*:1])[*:2]; Aoc = NCCCCCCCC(=O)O
Experiments:
[1] = system: Staphylococcus aureus ATCC 29213; assay type: cell-based
[2] = system: Escherichia coli ATCC 25922; assay type: cell-based
[3] = system: Klebsiella pneumoniae ATCC 13883; assay type: cell-based
[4] = system: Pseudomonas aeruginosa ATCC 27853; assay type: cell-based
[5] = system: Salmonella senftenberg CDC 127; assay type: cell-based
[6] = system: Shigella sonnei MMX 10772; assay: Antibacterial broth microdilution MIC, Shigella sonnei; assay type: cell-based; conditions: CAMHB
[7] = system: Mycobacterium fortuitum ATCC 110; assay: Antibacterial broth microdilution MIC, Mycobacterium fortuitum; assay type: cell-based; conditions: 48 hrs
[8] = system: Mycobacterium smegmatis ATCC 700084; assay type: cell-based; conditions: ATCC 700084, 48 h
C. albicans = conditions: 24 h
C. glabrata = conditions: 24 h
C. parapsilosis = conditions: 24 h
C. krusei = conditions: 24 h
C. auris = conditions: 24 h
C. tropicalis = conditions: 24 h
C. dubliniensis = conditions: 24 h
C. neoformans = conditions: 72 h
C. gattii = conditions: 72 h
Fusarium spp. = conditions: 48 h
[9] = system: Trichophyton rubrum ATCC MYA-4438
[10] = system: Epidermophyton floccosum ATCC 52066
[11] = system: Microsporum gypseum ATCC 14683
in vitro = conditions: human
[12] = Acute toxicity in CD-1 mice; conditions: both sexes, mouse, in vivo
Procedure: Acute toxicity and subacute toxicity of ACPs were tested in CD-1 mice. In the acute toxicity study, groups of CD-1 male or female mice were administered single intravenous or intraperitoneal escalating doses (n=2-3 per dose) of the peptides dissolved in normal saline for injection or in phosphate buffered saline. The intravenous dose was administered via tail vein with a slow push over 15-20 seconds. Doses were escalated based on tolerability.

Coccidioides species = conditions: N = 3 strains; 48-72 hrs; >50% inhibition
Scedosporium spp. = conditions: 72 h
Rhizopus arrhizus = conditions: 24 h
Paecilomyces variotii = conditions: 48 h
[13] = EC50 cytotoxicity in HepG2, intracellular ATP assay

Compound	MIC Staphylococcus aureus [1]	MIC Escherichia coli [2]	MIC Klebsiella pneumoniae [3]	MIC Pseudomonas aeruginosa [4]	MIC Salmonella senftenberg [5]	MIC Shigella sonnei [6]	MIC Mycobacterium fortuitum [7]	MIC Mycobacterium smegmatis [8]	MIC C. albicans (C. albicans)	MIC C. glabrata (C. glabrata)	MIC C. parapsilosis (C. parapsilosis)	MIC C. krusei (C. krusei)	MIC C. auris (C. auris)	MIC C. tropicalis (C. tropicalis)	MIC C. dubliniensis (C. dubliniensis)	MIC C. neoformans (C. neoformans)	MIC C. gattii (C. gattii)	MIC Range Fusarium spp. (Fusarium spp.)	MIC Trichophyton rubrum [9]	MIC Epidermophyton floccosum [10]	further results
N=C(N)NCCC[C@@H](N)C(=O)N[C@@H](CCCNC(=N)N)C(=O)N[C@H](CCCNC(=N)N)C(=O)NCC(=O)N[C@H](CCCNC(=N)N)C(=O)N[C@@H](CCCNC(=N)N)C(=O)N[C@H](CCCNC(=N)N)C(=O)NCC(=O)N[C@H](CCCNC(=N)N)C(=O)N[C@@H](CCCNC(=N)N)C(=O)N[C@H](CCCNC(=N)N)C(=O)N[C@@H](CCCNC(=N)N)C(=O)NCC(=O)N[C@H](CCCNC(=N)N)C(=O)N[C@@H](CCCNC(=N)N)C(=O)N[C@H](CCCNC(=N)N)C(=O)N[C@@H](CCCNC(=N)N)C(=O)N[C@@H](CS)C(=O)O [SEQ ID NO: 2, rRr-G-rRr-G-rRrR-G-rRrR-Cys] (H-[dR]R[dR]G[dR]R[dR]G[dR]R[dR]RG[dR]R[dR]RC-OH)	8 µg/mL (≈ 3.23 µM)	8 µg/mL (≈ 3.23 µM)	64 µg/mL (≈ 25.8 µM)	32 µg/mL (≈ 12.9 µM)	32 µg/mL (≈ 12.9 µM)	16 µg/mL (≈ 6.45 µM)	4 µg/mL (≈ 1.61 µM)	1 µg/mL (≈ 0.403 µM)	0.5 µg/mL (≈ 0.202 µM)	0.5 µg/mL (≈ 0.202 µM)	0.25 µg/mL (≈ 0.101 µM)	0.5 µg/mL (≈ 0.202 µM)	2 µg/mL (≈ 0.807 µM)	0.25 µg/mL (≈ 0.101 µM)	0.5 µg/mL (≈ 0.202 µM)	0.5 µg/mL (≈ 0.202 µM)	0.5 µg/mL (≈ 0.202 µM)	0.12 to 0.25 µg/mL	2 µg/mL (≈ 0.807 µM)	4 µg/mL (≈ 1.61 µM)	MIC Microsporum gypseum [11]: >64 µg/mL; MIC50 against Candida spp. (Candida spp.): 0.5 µg/mL (≈ 0.202 µM); MIC90 against Candida spp. (Candida spp.): 2 µg/mL (≈ 0.807 µM); EC50 (in vitro; [13]): 40 µg/mL (≈ 16.1 µM); EC50 (in vitro; EC50 cytotoxicity in HepG2 cells (50% cell viability)): 39.6 µg/mL (≈ 16 µM)
N=C(N)NCCC[C@@H](N)C(=O)N[C@@H](CCCNC(=N)N)C(=O)N[C@H](CCCNC(=N)N)C(=O)NCCCCCCCCCC(=O)N[C@H](CCCNC(=N)N)C(=O)N[C@@H](CCCNC(=N)N)C(=O)N[C@H](CCCNC(=N)N)C(=O)NCCCCCCCC(=O)N[C@H](CCCNC(=N)N)C(=O)N[C@@H](CCCNC(=N)N)C(=O)N[C@H](CCCNC(=N)N)C(=O)N[C@@H](CCCNC(=N)N)C(=O)NCCCCCCCC(=O)N[C@H](CCCNC(=N)N)C(=O)N[C@@H](CCCNC(=N)N)C(=O)N[C@H](CCCNC(=N)N)C(=O)N[C@@H](CCCNC(=N)N)C(=O)O [SEQ ID NO: 32, rRr-(Ada)-rRr-(Aoa)-rRrR-(Aoa)-rRrR] (H-[dR]R[dR][NH(CH2)9CO][dR]R[dR][Aoc][dR]R[dR]R[Aoc][dR]R[dR]R-OH)	8 µg/mL (≈ 3.01 µM)	2 µg/mL (≈ 0.753 µM)	4 µg/mL (≈ 1.51 µM)	16 µg/mL (≈ 6.02 µM)	4 µg/mL (≈ 1.51 µM)	4 µg/mL (≈ 1.51 µM)	2 µg/mL (≈ 0.753 µM)	0.5 µg/mL (≈ 0.188 µM)	1 µg/mL (≈ 0.376 µM)	0.5 µg/mL (≈ 0.188 µM)	0.25 µg/mL (≈ 0.0941 µM)	0.5 µg/mL (≈ 0.188 µM)	4 µg/mL (≈ 1.51 µM)	0.5 µg/mL (≈ 0.188 µM)	1 µg/mL (≈ 0.376 µM)	0.25 µg/mL (≈ 0.0941 µM)	0.25 µg/mL (≈ 0.0941 µM)	0.25 to 1 µg/mL	8 µg/mL (≈ 3.01 µM)	4 µg/mL (≈ 1.51 µM)	MTD ([12]; single IP dose, read-out: Tolerated single intraperitoneal dose): 10 to 15 mg/kg; MTD ([12]; single IV dose via tail vein, read-out: Tolerated single intravenous dose): 5 to 7.5 mg/kg; MIC Range Coccidioides species (Coccidioides species): 0.25 to 0.5 µg/mL; MIC Range Scedosporium spp. (Scedosporium spp.): ≤0.12 µg/mL; MIC Range Lomentospora prolificans (Lomentospora prolificans): 0.25 µg/mL (≈ 0.0941 µM); MIC Range Rhizopus arrhizus (Rhizopus arrhizus): 0.5 to 8 µg/mL; MIC Range Paecilomyces variotii (Paecilomyces variotii): 0.25 µg/mL (≈ 0.0941 µM); MIC Microsporum gypseum [11]: >64 µg/mL; EC50 (in vitro; [13]): > 300 µg/mL

From patent US20240360177A1, “PEPTIDES WITH ANTIMICROBIAL ACTIVITIES” (priority 2021, published 2024)
